Reference: patent publication US9920061B2, “Imidazo[1,5-A]pyrimidinyl carboxamide compounds and their use in the treatment of medical disorders” (Lysosomal Therapeutics Inc., priority 2016, dated 2018)
In brackets after ≈: the same amount, converted by molar mass.

What was measured:
[1] = Compound solubility in water; type: physicochemical
[2] = target: T1, glucocerebrosidase (Gcase) (Homo sapiens, UniProt P04062); assay: Glucocerebrosidase (Gcase) activation assay, 4-methylumbelliferyl-beta-D-glucopyranoside substrate, with saposin C; type: biochemical; details: for activation at 0.1 µM: 0.1 μM test compound, read-out: Percent Gcase Activation 0.1 μM Test Compound; for activation at 1 µM: 1 μM test compound, read-out: Percent Gcase Activation 1 μM Test Compound
T1 sequence (P04062 40-536): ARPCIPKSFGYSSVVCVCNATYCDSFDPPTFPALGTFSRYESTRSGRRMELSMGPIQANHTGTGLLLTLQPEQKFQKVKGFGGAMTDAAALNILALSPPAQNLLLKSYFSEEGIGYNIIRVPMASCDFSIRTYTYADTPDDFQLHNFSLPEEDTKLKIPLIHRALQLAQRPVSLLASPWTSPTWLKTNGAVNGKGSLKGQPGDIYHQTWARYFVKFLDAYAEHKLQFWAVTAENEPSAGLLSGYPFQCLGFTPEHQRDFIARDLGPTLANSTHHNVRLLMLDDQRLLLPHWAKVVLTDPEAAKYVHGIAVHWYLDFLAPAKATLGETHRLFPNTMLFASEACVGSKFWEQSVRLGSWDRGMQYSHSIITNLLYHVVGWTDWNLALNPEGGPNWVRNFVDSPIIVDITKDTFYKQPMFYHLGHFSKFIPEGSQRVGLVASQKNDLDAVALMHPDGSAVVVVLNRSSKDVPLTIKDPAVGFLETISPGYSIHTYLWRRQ
Experimental: The ability of exemplary compounds to activate glucocerebrosidase (Gcase) was measured.
A 484 μL aliquot of a 1.0 mg/mL solution of phosphatidylserine (PS) (Sigma P7769) in chloroform was evaporated under a stream of nitrogen for 1 hour. The lipid film was dissolved over 4 minutes of vigorous vortexing in 40 mL of 176 mM K2HPO4/50 mM citric acid (pH 4.7) containing 7.5 μL of triton X-100, resulting in a mixed micellar preparation with a composition of 0.32 mM triton and 0.37 mol % PS. 4-Methylumbelliferyl-beta-D-glucopyranoside (ACROS-337025000) was dissolved in the micellar solution to a final concentration of 2 mM for use as the reaction substrate.
Test compounds were diluted to the desired concentrations with dimethylsulfoxide (DMSO) from 10 mM stocks, and 0.41 μL of the DMSO compound mixture was added to 100 μL of micellar solution containing 10 nM GCase and 100 nM saposin C (Enzo ALX-201-262-C050). Pre-incubation was allowed to occur for 30 minutes at room temperature, after which the reaction was initiated by combining 25 μL of substrate solution with 25 μL of compound/GCase/saposin mixture. The reaction proceeded for 15 minutes at room temperature and was stopped by adding 150 μL of 1M glycine, pH 12.5. The endpoint of the reaction was monitored by measuring fluorescence intensity (excitation: 365 nm; emission: 440 nm) on a SpectraMax i3 instrument (Molecular Devices). Test compounds were screened at 1.0 and 0.1 μM final concentration, and subsequent 8-point dose response curves were obtained using 3-fold dilutions from a maximum final concentration of […].

solubility [1] [µg/mL]	activation at 0.1 µM [2] [%]	activation at 1 µM [2] [%]	SMILES
3.6 (≈ 10.1 µM)	> 20	> 60	Cc1cc(-c2cccc(Cl)c2)nc2c(C(=O)N[C@@H](C)C3CC3)ncn12 [III-110]
1.3 (≈ 3.65 µM)	> 20	> 60	Cc1cc(-c2cc(F)cc(F)c2)nc2c(C(=O)N[C@@H](C)C3CC3)ncn12 [III-111]
5.5 (≈ 15.4 µM)	> 20	> 60	Cc1cc(-c2cc(F)ccc2F)nc2c(C(=O)N[C@@H](C)C3CC3)ncn12 [III-112]
1.7 (≈ 4.82 µM)	> 20	> 60	CCc1cc(-c2cccc(F)c2)nc2c(C(=O)N[C@@H](C)C3CC3)ncn12 [III-113]
26 (≈ 71.5 µM)	10 to 20	> 60	Cc1cc(N2CCCC(F)(F)C2)nc2c(C(=O)N[C@@H](C)C3CC3)ncn12 [III-114]
20.5 (≈ 56.4 µM)	< 10	< 30	Cc1cc(N2CCC(F)(F)CC2)nc2c(C(=O)N[C@@H](C)C3CC3)ncn12 [III-115]
0.6 (≈ 1.55 µM)	10 to 20	> 60	COCc1cc(-c2cc(F)cc(F)c2)nc2c(C(=O)N[C@@H](C)C3CC3)ncn12 [III-116]
20.5 (≈ 63.2 µM)	< 10	< 30	Cc1cc(-c2ncc[nH]2)nc2c(C(=O)NC(C)(C)C3CC3)ncn12 [III-117]
9.7 (≈ 25.7 µM)	< 10	30 to 60	Cc1cc(N2CCC(F)(F)CC2)nc2c(C(=O)NC(C)(C)C3CC3)ncn12 [III-118]
8.8 (≈ 24.8 µM)	< 10	30 to 60	Cc1cc(Oc2cccc(F)c2)nc2c(C(=O)N[C@@H](C)C3CC3)ncn12 [III-119]
27.7 (≈ 78.2 µM)	< 10	30 to 60	Cc1cc(Oc2ccccc2F)nc2c(C(=O)N[C@@H](C)C3CC3)ncn12 [III-120]
34.9 (≈ 103 µM)	< 10	< 30	Cc1cc(Oc2ccccn2)nc2c(C(=O)N[C@@H](C)C3CC3)ncn12 [III-121]
32.8 (≈ 97.2 µM)	< 10	< 30	Cc1cc(Oc2cccnc2)nc2c(C(=O)N[C@@H](C)C3CC3)ncn12 [III-122]
29.6 (≈ 87.7 µM)	< 10	< 30	Cc1cc(Oc2ccncc2)nc2c(C(=O)N[C@@H](C)C3CC3)ncn12 [III-123]
3.4 (≈ 10.4 µM)	> 20	> 60	Cc1cc(-c2cccc(F)c2)nc2c(C(=O)NC(C)(C)C)ncn12 [III-124]
0.2 (≈ 0.581 µM)	> 20	> 60	Cc1cc(-c2cc(F)cc(F)c2)nc2c(C(=O)NC(C)(C)C)ncn12 [III-125]
0.1 (≈ 0.281 µM)	> 20	> 60	COc1cc(F)cc(-c2cc(C)n3cnc(C(=O)NC(C)(C)C)c3n2)c1 [III-126]
1.4 (≈ 4.14 µM)	> 20	> 60	COc1cccc(-c2cc(C)n3cnc(C(=O)NC(C)(C)C)c3n2)c1 [III-127]
34.1 (≈ 107 µM)	< 10	< 30	COCCOc1cc(C)n2cnc(C(=O)N[C@@H](C)C3CC3)c2n1 [III-128]
6.1 (≈ 16.9 µM)	< 10	> 60	Cc1cc(-c2ccc3ncoc3c2)nc2c(C(=O)N[C@@H](C)C3CC3)ncn12 [III-129]
7.7 (≈ 21.3 µM)	> 20	> 60	Cc1cc(-c2ccc3ocnc3c2)nc2c(C(=O)N[C@@H](C)C3CC3)ncn12 [III-130]
2.8 (≈ 7.77 µM)	< 10	< 30	Cc1cc(-c2ccn3ccnc3c2)nc2c(C(=O)N[C@@H](C)C3CC3)ncn12 [III-131]
18.6 (≈ 57 µM)	10 to 20	> 60	CC[C@H](C)NC(=O)c1ncn2c(C)cc(-c3cccc(F)c3)nc12 [III-132]
1.5 (≈ 4.12 µM)	> 20	> 60	Cc1cc(-c2cccc(F)c2)nc2c(C(=O)NC(C3CC3)C3CC3)ncn12 [III-133]
2.4 (≈ 7 µM)	> 20	> 60	Cc1cc(-c2cccc(Cl)c2)nc2c(C(=O)NC(C)(C)C)ncn12 [III-134]
0.3 (≈ 0.85 µM)	> 20	> 60	C#CC(C)(C)NC(=O)c1ncn2c(C)cc(-c3cccc(Cl)c3)nc12 [III-135]
17.2 (≈ 43.9 µM)	> 20	> 60	CCc1cc(N2CCCC(F)(F)C2)nc2c(C(=O)NC(C)(C)C3CC3)ncn12 [III-136]

More lines, now with the values behind:

SMILES	solubility [1] [µg/mL]	activation at 0.1 µM [2] [%]	activation at 1 µM [2] [%]
Cc1cc(NC2CC2)nc2c(C(=O)NC(c3ccc(F)cc3)C(F)(F)F)ncn12 (stereo not drawn) [III-91]	0.8 (≈ 1.96 µM)	> 20	> 60
Cc1cc(N2CCCC(F)(F)C2)nc2c(C(=O)NC(C)(C)C3CC3)ncn12 [III-92]	9.6 (≈ 25.4 µM)	10 to 20	> 60
Cc1cc(-c2ccncc2)nc2c(C(=O)NC(C)(C)C3CC3)ncn12 [III-93]	18.8 (≈ 56.1 µM)	< 10	< 30
Cc1cc(-c2cccc(F)c2)nc2c(C(=O)N[C@H](C)C3CC3)ncn12 [III-94]	8.4 (≈ 24.8 µM)	10 to 20	> 60
Cc1cc(-c2ncccn2)nc2c(C(=O)NC(C)(C)C3CC3)ncn12 [III-95]	6.4 (≈ 19 µM)	< 10	< 30
Cc1cc(-c2ccccn2)nc2c(C(=O)N[C@H]3CC[C@H](OCC(C)C)CC3)ncn12 [III-96]	6.6 (≈ 16.2 µM)	< 10	30 to 60
COc1cncc(-c2cc(C)n3cnc(C(=O)N[C@@H](C)C4CC4)c3n2)c1 [III-97]	17.3 (≈ 49.2 µM)	< 10	30 to 60
COc1cccc(-c2cc(C)n3cnc(C(=O)N[C@@H](C)C4CC4)c3n2)n1 [III-98]	5.2 (≈ 14.8 µM)	10 to 20	> 60
COc1cc(-c2cc(C)n3cnc(C(=O)N[C@@H](C)C4CC4)c3n2)ccn1 [III-99]	25.6 (≈ 72.8 µM)	< 10	< 30
COc1ccnc(-c2cc(C)n3cnc(C(=O)NC(C)C4CC4)c3n2)c1 (stereo not drawn) [III-100]	7.2 (≈ 20.5 µM)	< 10	30 to 60
COCCOc1cccc(-c2cc(C)n3cnc(C(=O)N[C@@H](C)C4CC4)c3n2)c1 [III-101]	16 (≈ 40.6 µM)	10 to 20	> 60
Cc1cc(C)n2cnc(C(=O)N[C@@H](C)C3CC4(CCC4)C3)c2n1 [III-102]	12.1 (≈ 38.7 µM)	< 10	> 60
Cc1cc(-c2cccc(Cl)n2)nc2c(C(=O)N[C@@H](C)C3CC3)ncn12 [III-103]	3.8 (≈ 10.7 µM)	< 10	> 60
Cc1cc(-c2cc(Cl)ccn2)nc2c(C(=O)N[C@@H](C)C3CC3)ncn12 [III-104]	8 (≈ 22.5 µM)	10 to 20	> 60
Cc1cc(-c2cncc(F)c2)nc2c(C(=O)N[C@@H](C)C3CC3)ncn12 [III-105]	24.9 (≈ 73.4 µM)	< 10	30 to 60
Cc1cc(-c2ccnc(Cl)c2)nc2c(C(=O)N[C@@H](C)C3CC3)ncn12 [III-106]	12.8 (≈ 36 µM)	< 10	30 to 60
Cc1cc(-c2cnc(Cl)c(F)c2)nc2c(C(=O)N[C@@H](C)C3CC3)ncn12 [III-107]	1.9 (≈ 5.08 µM)	< 10	30 to 60
Cc1cc(-c2ccc(F)c(Cl)n2)nc2c(C(=O)N[C@@H](C)C3CC3)ncn12 [III-108]	14.5 (≈ 38.8 µM)	< 10	30 to 60
Cc1cc(-c2cccc(F)c2)nc2c(C(=O)NC(C)(C)C3CC3)ncn12 [III-109]	1.1 (≈ 3.12 µM)	> 20	> 60
